Series [1] deals with mice. The experiment in a line: Sedative effects in mice (exploratory activity, digicom analyzer chamber). To be noted: intraperitoneal, wild type mice; clonidine 500 ug/kg, Compound 3 100 ug/kg. In kind it is in vivo, mouse. How it is done: (§1) Sedative effects were analyzed by assessing exploratory behavior in a darkened chamber as follows. Mice were weighed, and test compound administered by intrathecal injection in a volume of 5 μl or by intraperitoneal injection in 1 ml/kg volume at the indicated dose. At predetermined time points corresponding with analgesia measurements 5 to 30 minutes following the injection, the animal's activity was determined automatically by placing the mouse in a digicom analyzer chamber (Omnitech Electronic; Columbus, Ohio). The digicom analyzer chamber contains photocell beams criss-crossing the box that are broken as the animal moves around; the chamber was modified for mice by raising the level of the floor. Computer analysis of total animal movement proceeded over a 5-minute time period. Any given animal was used at most twice for this protocol, as learned behavior can affect the data. All animals received at least two weeks rest between studies.

In series [2] the test system is Male Sprague-Dawley rats. Put plainly: Sedative effects in rats (total activity, digicom analyzer chamber). The settings on record: single intraperitoneal dose 1 to 1000 μg/kg. In kind it is in vivo, rat. Here is the method: as §1
Male Sprague-Dawley rats that were not subject to surgery were used for assessment of sedative effects. Rats were weighed and compound administered by intravenous or intraperitoneal injection or given orally at the indicated dose. At a predetermined time point 5 to 30 minutes following injection, the animal's activity was determined automatically by placing the rat in a digicom analyzer chamber (Omnitech Electronic). Total activity was analyzed as described above.

In series [3] the test system is sulprostone-sensitized wild type mice. Put plainly: Sulprostone sensitized pain (allodynia), wild type mice. In kind it is in vivo, mouse. The settings on record: intraperitoneal, wild type mice; clonidine 500 ug/kg, Compound 3 100 ug/kg. How it is done: Non-specific α-adrenergic agonists were assayed in α-2A receptor deficient (“knockout”) mice (Hein et al., supra, 1999) using a mouse model of sulprostone sensitized pain in which allodynia is evoked by intrathecal administration of a selective prostaglandin E2 receptor agonist to conscious mice essentially as described in Minami et al., Pain 57:217-223 (1994). In this model, the pain response to stroking the flank with a paint brush is scored eight times over a 35 minute period starting 15 minutes following spinal administration of sulprostone and intrathecal or intraperitoneal administration of drug or control vehicle. Sulprostone elicits a “pain” score of 12-13 on a 16-point scale.
Assays for allodynia in wild type and α-2A knockout mice were performed essentially according to the method of Yaksh and Harty, J. Pharmacology Exp. Ther. 244: 501-507 (1998). In brief, mice were divided into groups of 5-6 animals. Control mice were administered 5 ul DMSO while treated animals were injected with 5 ul DMSO containing various doses of the indicated agent. After intrathecal injection, each mouse was placed in an individual 13×8.5×13 cm Plexiglass enclosure with wood chips on the floor for observation. Allodynia was assessed once every five minutes over a 50 minute time period, with response recorded eight times in the 15 to 50 minute time frame. Allodynia was assessed by light stroking of the flank of the mice with a small paintbrush and ranked as follows: 0, no response; 1, mild squeaking with attempts to move away from the stroking probe; and 2, vigorous squeaking evoked by the stroking probe, biting at the probe and strong efforts to escape. The eight scores for each animal were added together, and the mean for the group determined to give an average total score.

Consider `O=C1c2ccccc2CCC1Cc1c[nH]c(=S)[nH]1` (racemic) [Compound 3], for which the concomitant sedation result in series [1] is on record as “without concomitant sedation”. The “non-sedating dose relative to doses producing a robust reversal of allodynia” value in series [2] is listed as above 100 fold. The sulprostone-induced tactile allodynia entry in series [3] was “alleviated sulprostone-induced tactile allodynia”.

For the origin of these results see patent publication US7345065B2, “Methods and compositions for alleviating pain” (Allergan, Inc., priority 2002, dated 2008).
